Experimental data from the supplement of paper PMC11061612.

Assays:
Assay in all cases: Bliss excess, mean over the matrix (fraction); higher = more synergy
[1] = system: RCC-JW (Kidney Carcinoma)
Summary of the method: (§1)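 After 24 hours at 37°C and 5% CO2 in 1536-well plates, cells in DMEM/F12 or RPMI plus 10% FBS received two-drug dose matrices for 72 hours. Viability came from CellTiter-Glo 2.0 luminescence and was scaled as inhibition, anchored at 0 by vehicle wells and at 1 by blank wells. Combination Emax is taken as the second-highest inhibition in the matrix, and Bliss excess as the observed combination effect less EA + EB − EA·EB, with EA and EB the single-agent effects.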

[2] = system: SUP-M2 (T-Cell Non-Hodgkin's Lymphoma)
Summary of the method: as §1

[3] = system: SNU-C2B (Colorectal Carcinoma)
Summary of the method: as §1

[4] = system: Raji (Burkitt's Lymphoma)
Summary of the method: as §1

[5] = system: NCI-H3118 (Head and Neck Carcinoma)
Summary of the method: as §1

[6] = system: ZR-75-30 (Breast Carcinoma)
Summary of the method: as §1

[7] = system: SNU-423 (Hepatocellular Carcinoma)
Summary of the method: as §1

[8] = system: P32-ISH (Burkitt's Lymphoma)
Summary of the method: as §1

NCI-H226 (Mesothelioma) = system: NCI-H226 (Mesothelioma)
Summary of the method: as §1

[9] = system: SKG-IIIa (Cervical Carcinoma)
Summary of the method: as §1

[10] = system: OAW-28 (Ovarian Carcinoma)
Summary of the method: as §1

[11] = system: P30-OHK (B-Lymphoblastic Leukemia)
Summary of the method: as §1

[12] = system: CPC-N (Small Cell Lung Carcinoma)
Summary of the method: as §1

AM-38 (Glioblastoma) = system: AM-38 (Glioblastoma)
Summary of the method: as §1

[13] = system: SK-CO-1 (Colorectal Carcinoma)
Summary of the method: as §1

[14] = system: CL-11 (Colorectal Carcinoma)
Summary of the method: as §1

[15] = system: BxPC-3 (Pancreatic Carcinoma)
Summary of the method: as §1

[16] = system: IA-LM (Non-Small Cell Lung Carcinoma)
Summary of the method: as §1

[17] = system: NCI-H1876 (Small Cell Lung Carcinoma)
Summary of the method: as §1

[18] = system: COR-L88 (Small Cell Lung Carcinoma)
Summary of the method: as §1

Compound	Bliss excess [1]	Bliss excess [2]	Bliss excess [3]	Bliss excess [4]	Bliss excess [5]	Bliss excess [6]	Bliss excess [7]	Bliss excess [8]	Bliss excess (NCI-H226 (Mesothelioma))	Bliss excess [9]	Bliss excess [10]	Bliss excess [11]	Bliss excess [12]	Bliss excess (AM-38 (Glioblastoma))	Bliss excess [13]	Bliss excess [14]	Bliss excess [15]	Bliss excess [16]	Bliss excess [17]	Bliss excess [18]
COc1cc2ncnc(Nc3ccc(F)c(Cl)c3)c2cc1OCCCN1CCOCC1 [Gefitinib] + CC(C)n1c(=O)n(C)c2cnc3cc(F)c(-c4ccc(OCCCN5CCCCC5)nc4)cc3c21 [AZD1390] (first compound max 10 µM, 7x7, partner max 0.3 µM)	-0.069	-0.0522	-0.06	-0.0343	-0.0011	-0.0587	-0.0902	-0.0116	-0.0661	-0.0991	-0.0392	-0.0298	-0.0369	-0.0811	-0.0056	-0.0474	-0.0692	-0.111	-0.074	-0.0652
Cc1c2c(nn1C)CSCc1cc(n(C)n1)CSc1cc(c3ccccc3c1)OCCCc1c(C(=O)O)n(C)c3c-2c(Cl)ccc13 [AZD5991] + Cc1cc2ncnn2cc1Nc1ncc2c(n1)n(C1CCOCC1)c(=O)n2C [AZD7648] (first compound max 1 µM, 7x7, partner max 10 µM)	-0.0349	-0.0146	-0.012	0.0794	-0.0707	-0.0134	-0.0768	0.0465	-0.061	-0.0261	0.0125	-0.0222	-0.0109	-0.0347	-0.0402	-0.0533	-0.0007	-0.0226	-0.0266	-0.0006
NC1(C(=O)N[C@@H](CCO)c2ccc(Cl)cc2)CCN(c2ncnc3[nH]ccc23)CC1 [Capivasertib] + CC(=O)c1c(C)c2cnc(Nc3ccc(N4CCNCC4)cn3)nc2n(C2CCCC2)c1=O [Palbociclib] (first compound max 10 µM, 7x7, partner max 10 µM)	0.0347	0.0198	-0.16	0.0521	0.0463	-0.0173	-0.0019	0.0066	-0.0792	-0.0489	-0.0162	0.0689	-0.0448	0.0392	-0.0319	-0.0222	-0.0396	-0.0789	-0.0263	-0.0113
CN(CCO)CC[C@H](CSc1ccccc1)Nc1ccc(S(=O)(=O)NC(=O)c2ccc(N3CCC([C@@H](O)c4ccccc4-c4ccc(Cl)cc4)CC3)cc2)cc1S(=O)(=O)C(F)(F)F [AZD4320] + C[C@@H]1COCCN1C2=NC(=NC(=C2)C3(CC3)[S@](=N)(=O)C)C4=C5C=CNC5=NC=C4 [AZD6738] (first compound max 1 µM, 7x7, partner max 10 µM)	-0.0862	-0.0128	-0.0292	0.0056	0.0076	-0.0601	-0.0359	-0.0092	-0.0819	-0.0302	0.0382	0.0653	0.0146	0.0052	-0.0858	0.0073	0.0373	-0.0404	0.0189	0.0079
COc1cccc(OCCCN)c1-c1cc(Nc2cnc(C#N)cn2)n[nH]1 [Prexasertib] + Cc1cc2ncnn2cc1Nc1ncc2c(n1)n(C1CCOCC1)c(=O)n2C [AZD7648] (first compound max 1 µM, 7x7, partner max 10 µM)	0.0374	0.0696	-0.0356	-0.0135	-0.0501	-0.0463	-0.0244	-0.0068	-0.0568	0.0223	-0.025	-0.0301	-0.0459	0.0296	-0.009	-0.0065	-0.0908	0.0324	-0.0713	-0.0628
CN(C)CCCOc1ccc(-c2ccc3ncc4c(c3c2)n(C2CCOCC2)c(=O)n4C)cn1 [AZD0156] + C[C@@H]1COCCN1C2=NC(=NC(=C2)C3(CC3)[S@](=N)(=O)C)C4=C5C=CNC5=NC=C4 [AZD6738] (first compound max 1 µM, 7x7, partner max 10 µM)	-0.0531	0.0555	0.0183	0.0164	-0.0235	-0.0305	-0.0414	0.0435	-0.0581	-0.0555	-0.0279	0.0152	0.0316	0.0677	-0.0865	-0.0265	-0.0083	-0.0241	0.0226	0.0772
CN(CCO)CC[C@H](CSc1ccccc1)Nc1ccc(S(=O)(=O)NC(=O)c2ccc(N3CCC([C@@H](O)c4ccccc4-c4ccc(Cl)cc4)CC3)cc2)cc1S(=O)(=O)C(F)(F)F [AZD4320] + CCN(CCO)CCCOc1ccc2c(Nc3cc(CC(=O)Nc4cccc(F)c4)[nH]n3)ncnc2c1 [AZD2811] (first compound max 1 µM, 7x7, partner max 1 µM)	-0.0023	0.0503	-0.0031	0.0111	0.002	-0.0024	-0.0325	-0.0231	-0.0238	-0.015	0.0773	0.045	0.0092	0.0616	0.0178	-0.0391	-0.0001	0.0119	0.0935	0.0591
Cc1c2c(nn1C)CSCc1cc(n(C)n1)CSc1cc(c3ccccc3c1)OCCCc1c(C(=O)O)n(C)c3c-2c(Cl)ccc13 [AZD5991] + Cn1cnc2c(F)c(Nc3ccc(Br)cc3Cl)c(C(=O)NOCCO)cc21 [Selumetinib] (first compound max 1 µM, 7x7, partner max 3 µM)	-0.0319	0.048	0.0671	0.0082	0.0324	-0.0609	-0.0599	0.0025	-0.0684	-0.0076	0.089	0.0011	0.0185	0.0517	-0.0218	-0.0222	0.0457	-0.0299	0.0841	-0.0114
Cc1c2c(nn1C)CSCc1cc(n(C)n1)CSc1cc(c3ccccc3c1)OCCCc1c(C(=O)O)n(C)c3c-2c(Cl)ccc13 [AZD5991] + C=CCn1c(=O)c2cnc(Nc3ccc(N4CCN(C)CC4)cc3)nc2n1-c1cccc(C(C)(C)O)n1 [AZD1775] (first compound max 1 µM, partner max 1 µM)	0.0418	0.0007	0.0194	-0.013	-0.0361	0.0376	-0.0976	-0.0228	0.018	0.0071	0.0049	0.0077	-0.0453	-0.0015	-0.0425	-0.0112	-0.0125	-0.0011	-0.0292	-0.0463
CCN(CCO)CCCOc1ccc2c(Nc3cc(CC(=O)Nc4cccc(F)c4)[nH]n3)ncnc2c1 [AZD2811] + C=CCn1c(=O)c2cnc(Nc3ccc(N4CCN(C)CC4)cc3)nc2n1-c1cccc(C(C)(C)O)n1 [AZD1775] (first compound max 1 µM, partner max 1 µM)	-0.0118	-0.036	-0.0602	0.0278	-0.0798	-0.0422	-0.01	-0.0336	-0.0708	-0.0142	0.0277	-0.0412	-0.0239	0.0107	-0.0559	0.0034	-0.0099	0.0064	-0.0318	-0.0099
CN(C)CCCOc1ccc(-c2ccc3ncc4c(c3c2)n(C2CCOCC2)c(=O)n4C)cn1 [AZD0156] + O=C(c1cc(Cc2n[nH]c(=O)c3ccccc23)ccc1F)N1CCN(C(=O)C2CC2)CC1 [Olaparib] (first compound max 3 µM, partner max 3 µM)	0.0299	0.202	0.0054	0.156	0.0479	-0.0203	0.0634	0.211	-0.0594	-0.0324	0.0871	0.262	0.0237	0.167	-0.0173	0.0647	-0.0342	0.0017	0.103	-0.193
C[C@@H](c1ccc2nccn2c1)n1nnc2ncc(-c3cnn(C)c3)nc21 [Savolitinib] + CC1(C)CCC(CN2CCN(c3ccc(C(=O)NS(=O)(=O)c4ccc(NCC5CCOCC5)c([N+](=O)[O-])c4)c(Oc4cnc5[nH]ccc5c4)c3)CC2)=C(c2ccc(Cl)cc2)C1 [Venetoclax] (first compound max 1 µM, 7x7, partner max 1 µM)	-0.0343	-0.0238	-0.0831	-0.0114	-0.0398	-0.0361	-0.0205	-0.0188	-0.0342	-0.0546	-0.0331	-0.0198	-0.0454	-0.0839	-0.0491	-0.0576	-0.0371	-0.0963	-0.0486	-0.021
CN(CCO)CC[C@H](CSc1ccccc1)Nc1ccc(S(=O)(=O)NC(=O)c2ccc(N3CCC([C@@H](O)c4ccccc4-c4ccc(Cl)cc4)CC3)cc2)cc1S(=O)(=O)C(F)(F)F [AZD4320] + CN(C)CCCOc1ccc(-c2ccc3ncc4c(c3c2)n(C2CCOCC2)c(=O)n4C)cn1 [AZD0156] (first compound max 1 µM, 7x7, partner max 1 µM)	-0.0301	0.0491	-0.0007	0.0041	-0.044	-0.038	-0.0727	0.0018	-0.0589	-0.0392	-0.0218	0.0275	-0.0391	0.112	-0.0758	-0.0441	-0.0239	-0.0239	0.0374	-0.0161
CC(=O)c1c(C)c2cnc(Nc3ccc(N4CCNCC4)cn3)nc2n(C2CCCC2)c1=O [Palbociclib] + Cc1c2c(nn1C)CSCc1cc(n(C)n1)CSc1cc(c3ccccc3c1)OCCCc1c(C(=O)O)n(C)c3c-2c(Cl)ccc13 [AZD5991] (first compound max 10 µM, 7x7, partner max 1 µM)	-0.0306	-0.0132	-0.0477	-0.0109	0.0084	-0.0372	-0.0349	0.0299	-0.0287	-0.0489	0.0058	0.0418	0.0035	-0.0448	-0.035	0.0079	-0.0528	-0.161	0.0191	0.0122
